{
  "source": "patent US12419832B2",
  "about": "“Intratumoral delivery of bortezomib” (Cognos Therapeutics, Inc., priority 2018, dated 2025)",
  "key": {"[1]": {"tested_on": "U87 glioma cells implanted intracranially", "experiment": "Orthotopic intracranial glioma model, U87, survival", "format": "in vivo, athymic nude mice", "conditions": "IV 36 μg total", "description": "(§1) FIGS. 3A-3B. […] Human glioma cells U251 (FIG. 3A) or U87 (FIG. 3B) were implanted intracranially; subsequently, mice were given bortezomib (36 μg total) (square) or vehicle (circle) IV. The brain tumor size was monitored by optical imaging weekly, and animal survival data were analyzed by Kaplan-Meier plot.\n(§2) Briefly, athymic nude mice were anesthetized with ketamine and xylazine (10 mg/kg) and fixed into a stereotactic head frame (Harvard Apparatus). A 1.5-mm bur hole was drilled 1 mm anterior to the coronal suture on the right hemisphere and 2 mm lateral from the midline. A Hamilton syringe fixed onto the head frame was used to inject human glioma cells (2×10^5 cells/5 μl) into the right frontal lobe of the brain. The skin incision was then closed with 4-0 silk thread. The appropriate medications were provided to reduce pain.\nSeven to 10 days after tumor cell implantation, imaging was used to confirm brain tumor formation. Briefly, mice were anesthetized using 2% isoflurane gas and injected intravenously (IV) with 50 mg/kg of D-Luciferin (Perkin Elmer) and placed into the IVIS Spectrum (Caliper Life Sciences). Analysis was performed with Living Image software (Caliper Life Sciences), in which circular regions of interest drawn over the tumor site were used, and results were reported as total flux (photons/second). […]"}, "[2]": {"experiment": "Dose escalation, intracerebral osmotic mini-pump, normal nontumor-bearing mice", "description": "The doses of bortezomib used in these experiments were determined by injecting escalating doses of the drug intracerebrally (delivered by osmotic mini-pump) into normal, nontumor-bearing mice. […] In FIG. 4, treatment groups (n=6) were vehicle (saline-filled pump); bortezomib given IV (36 μg in total); bortezomib IT (low dose, 0.36 μg); bortezomib IT (medium dose, 1.2 μg); and bortezomib IT (high dose, 3.6 μg)."}, "[3]": {"tested_on": "U87 glioma cells implanted subcutaneously", "experiment": "Subcutaneous glioma xenograft tumor model, U87", "format": "in vivo, athymic nude mice", "conditions": "0.3 mg/kg (36 μg total), vs vehicle", "description": "(§3) FIGS. 2A-2B. […] FIG. 2A: Glioma cells (U251) were implanted subcutaneously into athymic nu/nu mice. Fourteen days later, intravenous treatment was initiated: vehicle treatment (circle); bortezomib (36 μg total) (square). Subsequently animals were left untreated for 14 days. […] FIG. 2B: Glioma cells (U87) were implanted subcutaneously in athymic nude mice. Bortezomib was administered at a total dose of 36 μg by intravenous injection beginning on Day 30 post-implantation.\n(§4) The animal protocol was approved by the institutional animal care and use committee of the University of Southern California. All mice were maintained in a pathogen-free environment throughout the experiment. For the subcutaneous tumor xenograft model, 5×10^5 human glioma cells (U87, U251, and LN229) suspended in a volume of 50 μl phosphate-buffered saline were implanted into the right flank of 30 athymic nude mice (Harlan, Inc.). Tumors were palpable approximately 2-3 weeks post-implantation. The animals were divided randomly into 5 groups of 6 mice, and treatment was initiated according to protocol."}, "[4]": {"tested_on": "intracranial glioma tumor", "experiment": "Histological investigation of tumor-bearing brains (H & E, TRA 1-85)", "format": "in vivo, mice", "description": "FIG. 6. […] Tumor-bearing animals were treated with intratumoral-administered bortezomib (A) or IV-administered-bortezomib (B). After 5 days the animals were euthanized, brains harvested, and stained with hematoxylin/eosin.\nTissues used for histological investigation were fixed in 10% formalin, embedded in paraffin, and stained with H & E. The antibody TRA-1-85/CD147 (RD Systems) was used to stain for human cells."}, "[5]": {"tested_on": "human glioma cells (U251, LN229, U87)", "experiment": "MTT cytotoxicity assay on glioma cells", "format": "cell-based", "conditions": "Glioma cell, 3 cell lines (U251, LN229, U87), 48 hours, read-out: median inhibitory concentrations (IC50)", "description": "Glioma cells (U251, LN229, U87) were treated with bortezomib (0-25 nM) for 48 hours. Cell death was evaluated using the MTT assay. O.D.=optical density.\nHuman glioma cells (U87, U251, and LN229) were cultured in DMEM, supplemented with 10% fetal bovine serum and 1% penicillin-streptomycin, and incubated in 5% CO2. Bortezomib (Velcade) was purchased from the University of Southern California/Norris Comprehensive Cancer Center pharmacy. Bortezomib has been approved by the FDA for clinical use. The sterile 14-day Alzet mini-osmotic pump (model 2002) was used in these experiments. The Alzet mini-osmotic pump has a reservoir volume of 200 μl and a delivery rate of 0.5 μl/hour. The brain infusion kit, which includes the pump and distribution tubing, was purchased from DURECT Corporation.\nGlioma cells (5000 cells/well) were seeded in 96-well plates. After 24 hours, bortezomib was added to the cells at different concentrations, and the cells were incubated for 48 hours. The monotetrazolium (MTT) assay was performed according to the manufacturer's protocol (Calbiochem EMD, Millipore). Absorbance was measured using a microtiter plate reader (Molecular Devices) at 490 nm. Percent viability was calculated relative to untreated control cells. All experiments were performed in triplicate."}, "malignant gliomas / GBM": {"tested_on": "malignant gliomas / GBM", "conditions": "cited from earlier work"}, "20S proteasome": {"tested_on": "20S proteasome", "experiment": "20S proteasome activity assay on lysates of tumor-bearing brains", "format": "in vivo, mice", "conditions": "IT 3.6 μg total, Alzet pump", "description": "FIG. 5. […] Animals were treated by intratumorally administration of bortezomib (3.6 μg total) using the Alzet pump. After 5, 7 or 10 days, animals were euthanized, tumor-bearing brains were harvested, and lysates prepared for the proteasome activity assay. Control values were obtained from vehicle-treated brains at 5, 7, and 10 days.\nBrain lysates were prepared by homogenization of tumor-bearing brains in phosphate-buffered saline. Supernatants were collected by centrifugation at 12,000 rpm for 15 minutes at 4° C. Total protein concentration was measured by the BCA protein assay, and 100 μg of total protein was used to measure proteasome activity. The 20S proteasome assay kit (EMD Millipore) was used according to manufacturer's instructions. The assay is based on detection of fluorophore 7-amino-4-methylcoumarin (AMC) after cleavage from the labeled substrate LLVYAMC. The free AMC fluorescence was quantified using 380-nm excitation and 460-nm emission filters."}, "[6]": {"tested_on": "U251 glioma cells implanted intracranially", "experiment": "Orthotopic intracranial glioma model, U251, survival", "format": "in vivo, athymic nude mice", "conditions": "for median survival time: IT pump, control 23 days", "description": "as §1\nFIG. 4. Bortezomib (BZM) administered intratumorally (IT) is effective in increasing survival. Glioma cells (U251) were implanted intracranially. After 10 days, animals were treated IT with vehicle; bortezomib IV (36 μg total); bortezomib IT (low dose, 0.36 μg total); bortezomib IT (medium dose, 1.2 μg total); and bortezomib IT (high dose, 3.6 μg total). […] CED=convection-enhanced delivery.\nas §2\nSeven to 10 days after tumor cell implantation, imaging was used to confirm brain tumor formation. Briefly, mice were anesthetized using 2% isoflurane gas and injected intravenously (IV) with 50 mg/kg of D-Luciferin (Perkin Elmer) and placed into the IVIS Spectrum (Caliper Life Sciences). Analysis was performed with Living Image software (Caliper Life Sciences), in which circular regions of interest drawn over the tumor site were used, and results were reported as total flux (photons/second). Based on total flux, animals were randomly divided into experimental groups.\nOnce tumors were identified, approximately 7 days after intracranial tumor cell implantation, Alzet mini-osmotic pumps were filled with the desired dose of reagent and implanted. A plastic tube primed with the agent was used to connect the infusion kit to the brain. The assembled delivery system was stored at 4° C. overnight before implantation. Bortezomib was delivered into the tumor using the Alzet mini-osmotic pumps.\nTo anchor the pump to the animal, an incision was made in the scalp alongside the previous surgical scar. The caudal edge of the incision was pulled, and the connective tissues were separated. Subsequently a subcutaneous tunnel was prepared. The Alzet mini-osmotic pump was pushed backward to adjust the location of the brain infusion kit directly above the hole in the skull that had been previously drilled for tumor cell implantation. The infusion kit (plastic tubing) was gently inserted into the formed tumor. The plastic platform end was fixed onto the skull by using instant super glue. The area around the skin incision was sterilized and sutured with 4-0 silk thread. The contents of the Alzet mini-osmotic pump were released into the tumor at a rate of […]. The treatment groups (6 mice per group) were listed as the following: 1) pump-administered vehicle (saline); 2) bortezomib (0.3 mg/kg=36 μg in total) given by intravenous injection; 3) low-dose bortezomib (0.003 mg/kg=0.36 μg in total) intracranial pump delivery; 4) medium-dose bortezomib (0.01 mg/kg=1.2 μg in total) intracranial pump delivery; and 5) high-dose bortezomib (0.03 mg/kg=3.6 μg in total) intracranial pump delivery. In summary, bortezomib was administered for 14 days, either IV at 0.3 mg/kg twice weekly (total 4 injections in 14 days), or continuously into the intracranial tumor bed by using the Alzet mini-osmotic pump. After the treatment was completed (14 days), animals were left untreated until the appearance of neurological and behavioral abnormalities requiring euthanasia. Animals treated with vehicle received saline by Alzet mini-osmotic pump.\nSurvival data were plotted using the Kaplan-Meier method. […]"}, "[7]": {"tested_on": "U251 glioma cells implanted subcutaneously", "experiment": "Subcutaneous glioma xenograft tumor model, U251", "format": "in vivo, athymic nu/nu mice", "conditions": "IV 0.3 mg/kg twice per week (36 μg total), vs vehicle", "description": "as §3, §4"}, "[8]": {"tested_on": "glioma stem cells and normal stem cells", "conditions": "cited from earlier work"}},
  "note": "Entries after “also recorded” stand apart in the source; their conditions may differ. Read-outs that look alike come from different tables or passages of the source.",
  "data": [
    {"molecule": "CC(C)C[C@H](NC(=O)[C@H](Cc1ccccc1)NC(=O)c1cnccn1)B(O)O", "note": "[bortezomib, [(1R)-3-methyl-1-[[(2S)-3-phenyl-2-(pyrazine-2-carbonylamino)propanoyl]amino]butyl]boronic acid]", "values": [
      {"measurement": "survival vs vehicle", "setting": "[1]", "value": "no significant differences"},
      {"measurement": "toxicity", "setting": "[2]; 7.2 μg", "value": "toxic and fatal"},
      {"measurement": "toxicity", "setting": "[2]; 18.0 μg", "value": "toxic and fatal"},
      {"measurement": "toxicity", "setting": "[2]; 36.0 μg", "value": "toxic and fatal"},
      {"measurement": "tumor growth rate / tumor progression", "setting": "[3]", "value": "delayed tumor progression"},
      {"measurement": "tumor growth rate / tumor progression", "setting": "[3]; listed as Bortezomib", "value": "significantly (p=0.041) decreased tumor growth rate"},
      {"measurement": "tumor size (surface area), IV-treated animal relative to intratumoral-treated animal", "setting": "[4]; Day 5, IV 36 μg total vs IT 3.6 μg total, H & E", "value": "approximately ten-fold larger"},
      {"measurement": "tumor cell invasion into mouse brain, IV-treatment compared to IT-treated", "setting": "[4]; anti-human antibody TRA 1-85 staining", "value": "greater tumor cell invasion"},
      {"measurement": "microvessel densities vs vehicle-treated mice", "setting": "[4]; data not shown", "value": "not significantly different"},
      {"measurement": "IC50", "setting": "[5]", "value": "5 to 10", "unit": "nM"},
      {"measurement": "therapeutic benefit, Phase II trial", "setting": "malignant gliomas / GBM; combination with tamoxifen, systemic, patients with malignant gliomas", "value": "no therapeutic benefit"},
      {"measurement": "benefit, Phase II clinical trial", "setting": "malignant gliomas / GBM; combination with vorinostat, bortezomib IV, GBM", "value": "no benefit"},
      {"measurement": "proteasome activity in tumor-bearing brain vs vehicle", "setting": "20S proteasome; 5 days, p=0.03", "value": "significantly reduced proteasome activity"},
      {"measurement": "proteasome activity in tumor-bearing brain vs vehicle", "setting": "20S proteasome; 7 days, p=0.03", "value": "significantly reduced proteasome activity"},
      {"measurement": "proteasome activity in tumor-bearing brain vs vehicle", "setting": "20S proteasome; 10 days, p=0.0048", "value": "significantly reduced proteasome activity"},
      {"measurement": "increase in survival", "setting": "[6]; IT administration, median survival 23 to 37 days", "value": "approximately 40%"},
      {"measurement": "survival, IT vs IV (36 μg)", "setting": "[6]; U251 intracranial, IT high dose 3.6 μg total, p=0.0022", "value": "significantly enhanced survival"},
      {"measurement": "survival, IT vs IV (36 μg)", "setting": "[6]; U251 intracranial, IT low dose 0.36 μg total, p=0.1104", "value": "not significant"},
      {"measurement": "survival, IT vs IV (36 μg)", "setting": "[6]; U251 intracranial, IT medium dose 1.2 μg total, p=0.0005", "value": "significantly enhanced survival"},
      {"measurement": "median survival time", "setting": "[6]; U251 intracranial, high dose 3.6 μg total", "value": 37, "unit": "days"},
      {"measurement": "median survival time", "setting": "[6]; U251 intracranial, medium dose 1.2 μg total", "value": 34, "unit": "days"},
      {"measurement": "survival vs vehicle", "setting": "[6]; U251 intracranial, IV 0.3 mg/kg (36 μg total), 0.3 mg/kg", "value": "no significant differences in survival time; also recorded: not significant"},
      {"measurement": "tumor growth rate", "setting": "[7]", "value": "significantly effective in delaying tumor growth"},
      {"measurement": "tumor growth rate", "setting": "[7]; listed as Bortezomib", "value": "significantly (p=0.0145) decreased tumor growth rate"},
      {"measurement": "cytotoxicity", "setting": "[8]; glioma stem cells", "value": "cytotoxic"},
      {"measurement": "cytotoxicity", "setting": "[8]; normal stem cells", "value": "not toxic"}
    ]}
  ]
}
